Laboratory results as given in US20030108893A1, “Method for establishing neurogically relevant properties of a material” (priority 1999, published 2003).

Columns and labels:
[1] = system: threadworm (C. elegans); experiment: Preincubation with test material before MPTP; reversion or prevention of the MPTP phenotype; type: in vivo, Caenorhabditis elegans; settings: 100 C. elegans; three days of preincubation with L-DOPA, MPTP added on the third day; observed on day 6 (Figure B)
Description: It is possible to expose the nematodes to the materials to be investigated in a wide variety of ways. For example, it is possible to culture the animals in Petri dishes containing an agar which contains neurotoxic substances, on the one hand, and the substances of interest on the other. However, it is also possible to bathe the animals, in a simple manner, in the materials to be investigated. As well as being particularly simple, this variant also makes it possible to standardize the concentrations more easily and to achieve a higher throughput in a screening system. For an investigation, use is made of populations of the animals, which populations are then incubated with different solutions of the materials and at different concentrations. […] The observation, namely the reversion or prevention of the behavioral anomaly or the morphological change following neurotoxin treatment, makes it possible to draw a conclusion with regard to the possible activity and site of action of the material whose suitability as a drug is under investigation.
(§1) Per assay, about 100 threadworm (C. elegans) test animals at a defined stage of development (e.g. L1 larval stage) were incubated in liquid medium at constant temperature (e.g. 20° C.). […]

[2] = system: threadworm (C. elegans); experiment: Neurotoxic substance administered to nematodes in liquid medium; behavior or morphology phenotype observed; type: in vivo, Caenorhabditis elegans; settings: for behavioral anomalies or changes in morphology after administration of neurotoxic compound: nematodes (threadworms), general finding
Description: The response to the administration of neurotoxic substances which act on the central nervous system was investigated in nematodes of the genus Caenorhabditis and, in particular, in Caenorhabditis elegans. In this threadworm, a characteristic phenotype, which is expressed, for example, in movement disturbances, a reduced number of progeny or morphological changes,; is observed both in the larval stages L1, L2, L3 and L4 (see “The Nematode Caenorhabditis elegans”; Wood et al., Cold Spring Harbor Laboratory, 1988) and in the adult stage following incubation with a neurotoxic substance. This can be ascertained by observing the phenotype microscopically, by determining the number of progeny per animal and time period or by detecting nerve cells which have been labeled with particular dyes (e.g. GFP fusion proteins) and whose color changes after they have been acted upon by a neurotoxic substance.
as §1
This can be expressed in severe movement disturbances, a reduced number of progeny or morphological changes.

`N[C@@H](Cc1ccc(O)c(O)c1)C(=O)O` [L-DOPA, L-3,4-dihydroxyphenylalanine] was tested, and the “expression of the phenotype brought about by MPTP after incubation with test material” value [1] was “the phenotype which is brought about by MPTP is not expressed”.

`NCCc1cc(O)c(O)cc1O` [6-OHDA, 6-hydroxy-dopamine] was tested, and the “behavioral anomalies or changes in morphology after administration of neurotoxic compound” value [2] was “exhibit behavioral anomalies or changes in their morphology”.

With `CN1CC=C(c2ccccc2)CC1` [MPTP, 1-methyl-4-phenyl-1,2,3,6-tetrahydropyridine] the “characteristic phenotype (severe movement disturbances, reduced number of progeny or morphological changes)” value ([2]; about 100 C. elegans, e.g. L1 larval stage, liquid medium, e.g. 20° C., MPTP 16 to 500 μg/ml, observed e.g. on day 6 (Figure A)) was “a characteristic phenotype was observed” and the “behavioral anomalies or changes in morphology after administration of neurotoxic compound” value [2] was “exhibit behavioral anomalies or changes in their morphology”.
